Measured values: patent US11052131B2, “Methods and pharmaceutical compositions for the treatment of kidney cancer” (INSERM (Institut National de la Santé et de la Recherche …, priority 2016, dated 2021)
“Also recorded” adds a separate entry of the source.

Tests used:
[1] = biological target: recombinant human furin (Homo sapiens, UniProt P09958); test: In vitro enzymatic digestion of Ela peptides with furin (western blot); type: biochemical; settings: furin 0.2×10^−4U, 4 h, western blotting with anti-Ela antibody
Experimental: FIG. 4. ProEla processing. […] As assessed by western blotting using an anti-Ela antibody, furin processes the wild-type proEla 32 at the corresponding physiological cleavage sites.
Ela peptides were digested with furin for 4 h as previously described (Sfaxi et al., 2014, Scamuffa et al., 2008) and were subjected to Western blotting analysis.
The generated in vitro enzymatic digestion products were subjected to SDS-polyacrylamide gel electrophoresis in 13% gels. The primary antibody used was an anti-Ela 11 (Eurogentec). Horseradish peroxidase-conjugated secondary antibody and enhanced chemiluminescence (ECL+Plus, Amersham) were used for primary antibody revelation according to the manufacturers' instructions using a Chemiluminescence imaging system (GeneGnome, Syngene) (Sfaxi et al., 2014, Scamuffa et al., 2008).
The cDNA structure of human ELA predicts an 54 amino acids (aa) pre-proEla. Following the removal of the 22 aa of the signal peptide the hormone is released as proEla of 32 aa. […] To study the importance of the proteolytic maturation of […] by the PCs in the mediation of its function we first assessed experimentally proEla 32 processing by furin using an in vitro digestion assay.

[2] = system: ERK; test: ERK activation analysis (phospho-ERK western blot) in HEK293A GFP-APJ cells; type: cell-based, human; settings: 1 μM; for phosphorylation of ERK: within 5 min of treatment
Experimental: (§1) Cells were lysed in RIPA buffer (150 mM NaCl, 50 mM Tris, 1 mM EDTA, 1% NP40, 0.25% sodium deoxycholate, pH8) and were subjected to SDS-PAGE on 12% gels. Cell lysates were analyzed by western blotting for ERK, AKT and P70 phosphorylation using an anti-phospho-ERK; anti-phospho-AKT and anti-phospho-P70 (Cell Signaling), respectively. The blots were stripped and reprobed with ERK, AKT or P70 (Cell Signaling) for data normalization. Primary antibodies were visualized using horseradish peroxidase-conjugated secondary antibodies (Amersham), and signals were detected using ECLPlus chemiluminescence system according to the manufacturers' instructions (Amersham).

[3] = system: AKT; test: AKT activation analysis (phospho-AKT western blot) in HEK293A GFP-APJ cells; type: cell-based, human; settings: 1 μM; for phosphorylation of AKT: seen after 5 min
Experimental: as §1

[4] = system: P70s6K; test: P70 activation analysis (phospho-P70 western blot) in HEK293A GFP-APJ cells; type: cell-based, human; settings: 1 μM, same conditions
Experimental: as §1

[5] = system: LC3II; test: mTOR signalling pathway in serum-starved RENCA cells: autophagy (LC3II); type: cell-based, murine; settings: lentiviral expression in RENCA cells, serum starvation
Experimental: as §1, with “RENCA cells overexpressing lentivirus encoding for wild type proEla, mutant proEla, or only tdTomato, were maintained in serum free media for different time. Cells” for “Cells”, “LC3, NFkB, Erk1/2, AKT, S6K or actin” for “ERK, AKT and P70 phosphorylation”, “anti phosphor NFkB, anti-phospho Erk, anti-phospho-Akt, anti-phospho S6K.” for “an anti-phospho-ERK; anti-phospho-AKT and anti-phospho-P70 (Cell Signaling), respectively.”
(§2) To evaluate the role of Elabela on kidney cancer progression, we used RENCA cells expressing elabela or elabela mutated at the furin site. Cells wera starved of serum for 1, 3, 6, 12 or 24 hours and the effect of Elabela on the mTOR pathway was observed by lookind at the phosphorylation or nfkB, Erk1/2, akt, or S6K.

[6] = system: mTORC1 pathway; test: mTOR signalling pathway in serum-starved RENCA cells: mTORC1 (S6K and S6 phosphorylation); type: cell-based, murine; settings: lentiviral expression in RENCA cells, serum starvation
Experimental: as §1, with “RENCA cells overexpressing lentivirus encoding for wild type proEla, mutant proEla, or only tdTomato, were maintained in serum free media for different time. Cells” for “Cells”, “LC3, NFkB, Erk1/2, AKT, S6K or actin” for “ERK, AKT and P70 phosphorylation”, “anti phosphor NFkB, anti-phospho Erk, anti-phospho-Akt, anti-phospho S6K.” for “an anti-phospho-ERK; anti-phospho-AKT and anti-phospho-P70 (Cell Signaling), respectively.”
as §2

[7] = system: ERK signaling; test: mTOR signalling pathway in serum-starved RENCA cells: ERK signaling; type: cell-based, murine; settings: lentiviral expression in RENCA cells, serum starvation
Experimental: as §1, with “RENCA cells overexpressing lentivirus encoding for wild type proEla, mutant proEla, or only tdTomato, were maintained in serum free media for different time. Cells” for “Cells”, “LC3, NFkB, Erk1/2, AKT, S6K or actin” for “ERK, AKT and P70 phosphorylation”, “anti phosphor NFkB, anti-phospho Erk, anti-phospho-Akt, anti-phospho S6K.” for “an anti-phospho-ERK; anti-phospho-AKT and anti-phospho-P70 (Cell Signaling), respectively.”
as §2

[8] = system: mTORC2 signaling; test: mTOR signalling pathway in serum-starved RENCA cells: mTORC2 (P(473)AKT); type: cell-based, murine; settings: lentiviral expression in RENCA cells, serum starvation
Experimental: as §1, with “RENCA cells overexpressing lentivirus encoding for wild type proEla, mutant proEla, or only tdTomato, were maintained in serum free media for different time. Cells” for “Cells”, “LC3, NFkB, Erk1/2, AKT, S6K or actin” for “ERK, AKT and P70 phosphorylation”, “anti phosphor NFkB, anti-phospho Erk, anti-phospho-Akt, anti-phospho S6K.” for “an anti-phospho-ERK; anti-phospho-AKT and anti-phospho-P70 (Cell Signaling), respectively.”
as §2

[9] = system: PI3K signaling; test: mTOR signalling pathway in serum-starved RENCA cells: PI3K (P(308)AKT); type: cell-based, murine; settings: lentiviral expression in RENCA cells, serum starvation
Experimental: as §1, with “RENCA cells overexpressing lentivirus encoding for wild type proEla, mutant proEla, or only tdTomato, were maintained in serum free media for different time. Cells” for “Cells”, “LC3, NFkB, Erk1/2, AKT, S6K or actin” for “ERK, AKT and P70 phosphorylation”, “anti phosphor NFkB, anti-phospho Erk, anti-phospho-Akt, anti-phospho S6K.” for “an anti-phospho-ERK; anti-phospho-AKT and anti-phospho-P70 (Cell Signaling), respectively.”
as §2

[10] = system: NFkB signaling; test: mTOR signalling pathway in serum-starved RENCA cells: NFkB; type: cell-based, murine; settings: lentiviral expression in RENCA cells, serum starvation
Experimental: as §1, with “RENCA cells overexpressing lentivirus encoding for wild type proEla, mutant proEla, or only tdTomato, were maintained in serum free media for different time. Cells” for “Cells”, “LC3, NFkB, Erk1/2, AKT, S6K or actin” for “ERK, AKT and P70 phosphorylation”, “anti phosphor NFkB, anti-phospho Erk, anti-phospho-Akt, anti-phospho S6K.” for “an anti-phospho-ERK; anti-phospho-AKT and anti-phospho-P70 (Cell Signaling), respectively.”
as §2

[11] = system: Renca cells; test: Tumorigenicity assay, Renca cells injected subcutaneously into syngeneic Balb/c mice; type: in vivo; settings: for tumor growth / tumor progression: 1×10^5 Renca cells stably expressing the construct (lentiviral), subcutaneous, vs control cells with empty vector; for tumor growth inhibition, wild type compared to mutant: subcutaneous Renca tumors, Balb/c mice
[12] = system: Renca cells; test: Kidney tumor progression, subcapsular inoculation of Renca cells in syngenic mice; type: in vivo; settings: Renca cells expressing the construct (lentiviral), sub-capsular injection
Source text: FIG. 3. Effect of Elabela expression in the kidney tumor cells (Renca) on kidney tumor progression. Elabela wild type (ela wt) or control lentivirus were used to express ela wt in Renca cells prior their subcapsular inoculation in syngenic mice.

[13] = system: Renca cells; test: Wound healing assay; type: cell-based, murine; settings: in vitro, 8 or 24 h after serum starvation
Experimental: Renca cells were cultivated until sub-confluency. A scratch is realized with a tip on each well and the wound healing is observed after 8 or 24 h after serum starvation.

[14] = system: Renca cells; test: Proliferation assay (IncuCyte ZOOM live cell imaging); type: cell-based, murine; settings: 2% foetal calf serum, 50 hours
Experimental: FIG. 8. RENCA (20,000 cells 4 cells/well) cells were plated in 96-well plates, proliferation assay was performed using the IncuCyte ZOOM™ live cell imaging system (Essen BioScience, MI USA). This system measures cell density. Cells are routinely propagated in RPMI 1640 medium (Life Technologies) in 2% foetal calf serum at 37° C. Cells are regularly screened for Mycoplasma (ATCC). The plate is placed into the IncuCyte ZOOM™ apparatus and images of the collective cell spreading are recorded every 2 hours for a total duration of 50 hours.

[15] = biological target: T1, human GFP-APJ fusion protein (Homo sapiens, UniProt P35414); test: APJ receptor internalization assay in HEK293A cells expressing GFP-APJ; type: cell-based; settings: 1 μM peptide, 30 min, HEK293 cells expressing GFP-APJ
T1 construct: expressed in transfected cells
T1 sequence (P35414 1-380): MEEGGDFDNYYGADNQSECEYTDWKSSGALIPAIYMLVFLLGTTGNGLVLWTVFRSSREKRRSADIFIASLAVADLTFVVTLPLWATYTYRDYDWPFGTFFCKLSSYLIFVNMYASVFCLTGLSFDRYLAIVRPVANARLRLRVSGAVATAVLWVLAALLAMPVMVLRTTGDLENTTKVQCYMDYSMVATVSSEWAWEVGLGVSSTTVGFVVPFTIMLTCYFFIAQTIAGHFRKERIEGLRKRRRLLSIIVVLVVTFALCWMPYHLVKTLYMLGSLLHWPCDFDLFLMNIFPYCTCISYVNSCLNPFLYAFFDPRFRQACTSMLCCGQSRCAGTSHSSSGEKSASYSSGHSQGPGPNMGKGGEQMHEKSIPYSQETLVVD
Experimental: Cells were fixed with 4% paraformaldehyde for 10 minutes at room temperature and APJ receptor internalization was analyzed using a Nikon epifluorescence microscopy.
Ligand-induced receptor internalization is a cellular response of APJ to ligand binding and its activation.

recombinant human furin, sequence (P09958 108-794): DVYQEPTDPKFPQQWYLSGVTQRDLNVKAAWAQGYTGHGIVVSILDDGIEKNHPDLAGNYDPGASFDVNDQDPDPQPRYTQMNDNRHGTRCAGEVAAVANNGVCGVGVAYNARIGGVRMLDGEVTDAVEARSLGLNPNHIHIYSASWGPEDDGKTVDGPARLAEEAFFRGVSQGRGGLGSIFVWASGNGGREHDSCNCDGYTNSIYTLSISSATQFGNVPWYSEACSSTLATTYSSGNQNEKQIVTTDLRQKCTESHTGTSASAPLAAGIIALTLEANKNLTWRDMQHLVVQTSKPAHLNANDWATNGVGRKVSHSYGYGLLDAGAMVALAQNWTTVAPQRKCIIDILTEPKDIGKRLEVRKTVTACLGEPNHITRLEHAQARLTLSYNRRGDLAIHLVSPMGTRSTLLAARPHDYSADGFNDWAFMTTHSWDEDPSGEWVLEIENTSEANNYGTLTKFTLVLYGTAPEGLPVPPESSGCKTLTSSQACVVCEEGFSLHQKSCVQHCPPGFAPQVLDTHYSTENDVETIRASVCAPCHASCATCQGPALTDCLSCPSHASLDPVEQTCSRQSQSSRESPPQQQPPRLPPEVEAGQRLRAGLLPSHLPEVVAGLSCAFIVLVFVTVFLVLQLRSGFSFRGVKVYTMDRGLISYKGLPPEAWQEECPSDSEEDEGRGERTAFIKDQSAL

## QRPVNLTMRRKLRKHNCLQRRCMPLHSRVPFP [wild type proEla 32]
[1]; listed as wild type proEla
  processing by furin, products generated: generated predominantly the mature Ela 11 aa
[1]; listed as wild-type proEla 32
  processing by furin, products generated: generates only the Ela 11 aa
[2]
  phosphorylation of ERK after 15 min: reduced
  phosphorylation of ERK: able to induce the phosphorylation of ERK
[2]; same conditions
  ERK activation compared between the peptides: higher as compared to mut proEla and Ela 11 effect
[3]
  AKT activation compared to effect on ERK activation: lower AKT activation while compared to their effect on ERK activation
  time of peak AKT phosphorylation: about 15 min
  phosphorylation of AKT: weak visible phosphorylation of AKT
[4]
  P70s6K activation: failed to induce significant effect
[5]
  induction of autophagy, estimated by LC3II levels: block in the induction of autophagy
[6]; listed as WT
  mTORC1 pathway, determined by S6K and S6 phosphorylation: sustained activation of mTORC1 pathway; also recorded: induced mTORC1 activation
[7]
  ERK signaling, determined by ERK phosphorylation: enhanced inhibition of ERK signaling
[8]
  mTORC2 signaling, determined by P(473)AKT: No effect in mTORC2 signaling
[9]
  PI3K signaling, determined by P(308)AKT: No effect in PI3K signaling
[10]
  NFkB signaling: No effect in NFkB signaling
[11]; listed as Ela
  tumor growth / tumor progression: inhibits tumor progression
[11]; listed as wild type proEla
  tumor growth / tumor progression: smaller size of tumors
[11]; listed as wild-type proEla 32
  tumor growth / tumor progression: reduced significantly tumor growth
[11]
  tumor growth inhibition, wild type compared to mutant: inhibit more efficiently tumor growth while compared to mutant proEla 32
[11]; listed as Wild type proEla 32
  tumor growth inhibition, wild type compared to mutant: inhibited more efficiently tumor growth while compared to mutant pro Ela 32
[12]
  tumor progression: inhibits tumor progression
[13]
  wound healing of Renca cells: inhibits wound healing of Renca cells
[14]
  cells proliferation: inhibits renca cells proliferation

## mutant proEla 32: proEla 32 in which cleavage sites R31/R32 and R42/R43 were replaced by S31/S32 and S42/S43 (positions 9, 10, 20, 21 of SEQ ID NO: 1) (QRPVNLTMSSKLRKHNCLQSSCMPLHSRVPFP; listed as Homo sapiens)
[1]; listed as mut proEla 32
  processing by furin, products generated: failed to generate any products
[1]; listed as mutant peptide ProEla 32
  processing by furin, products generated: failed to generate any mature Ela products
[15]
  APJ internalization: able to activate the APJ receptor and mediate its internalization
[2]
  phosphorylation of ERK after 15 min: reduced
  phosphorylation of ERK: able to induce the phosphorylation of ERK
[3]
  AKT activation compared to effect on ERK activation: lower AKT activation while compared to their effect on ERK activation
  time of peak AKT phosphorylation: about 15 min
  phosphorylation of AKT: weak visible phosphorylation of AKT
[4]
  P70s6K activation: failed to induce significant effect
[5]
  induction of autophagy, estimated by LC3II levels: block in the induction of autophagy
[6]; listed as MUT
  mTORC1 pathway, determined by S6K and S6 phosphorylation: sustained activation of mTORC1 pathway; also recorded: induced mTORC1 activation
[7]
  ERK signaling, determined by ERK phosphorylation: enhanced inhibition of ERK signaling
[8]
  mTORC2 signaling, determined by P(473)AKT: No effect in mTORC2 signaling
[9]
  PI3K signaling, determined by P(308)AKT: No effect in PI3K signaling
[10]
  NFkB signaling: No effect in NFkB signaling
[11]
  tumor growth / tumor progression: reduced significantly tumor growth
[11]; listed as mut ProEla
  tumor growth / tumor progression: smaller size of tumors
[11]; listed as mutant ELA polypeptide
  tumor growth / tumor progression: capable of inhibiting tumor progression
